We go through 24 compounds from patent US12552825B2 (Zikani Therapeutics, Inc., priority 2019, dated 2026).

Converted amounts (≈) assume the structure as drawn.

Common to all, as to assay type: cell-based
In assay [1] the test system is S. aureus MP-12. Description: microbe, parasite or virus in culture. Particulars: Staphylococcus aureus, MP12, read-out: MIC S. aureus MP-12.
Assay [2] concerns K. pneumoniae MP-546. Description: MIC determination by CLSI broth dilution, K. pneumoniae MP-546. To be noted: Klebsiella pneumoniae, MP546, CLSI broth dilution; strain MP-546. In general terms: In broth dilution the organism is exposed to a series of concentrations in liquid medium.
Assay [3] relates to A. baumannii MP-15. Description: MIC determination by CLSI broth dilution, A. baumannii MP-15. Particulars: Acinetobacter baumannii, MP15, strain MP-15, read-out: MIC A. baumanii MP-15.
For assay [4], the system named is P. aeruginosa MP-3. Description: MIC determination by CLSI broth dilution, P. aeruginosa MP-3. To be noted: Pseudomonas aeruginosa, MP3, strain MP-3.
Assay [5] concerns E. coli MP-4. Description: MIC determination by CLSI broth dilution, E. coli MP-4. Particulars: Escherichia coli, MP4, CLSI broth dilution; strain MP-4.

As for `CO[C@]1(C)C[C@@H](C)CN[C@H](CN)COC(=O)[C@H](C)C(=O)[C@H](C)[C@H]1O[C@@H]1OC(C)CC(N(C)C)C1O` (stereo partly shown) [Compound 221], the MIC in assay [1] and in assay [2] was above 32 µg/mL throughout.

Regarding `CO[C@]1(C)C[C@@H](C)CN[C@@H](Cc2c[nH]cn2)COC(=O)[C@H](C)C(=O)[C@H](C)[C@H]1O[C@@H]1OC(C)CC(N(C)C)C1O` (stereo partly shown) [Compound 205], the MIC in assay [1], in assay [3], in assay [4] and in assay [5] was above 32 µg/mL throughout.

On to `CO[C@]1(C)C[C@@H](C)CN(C)[C@@H](CCCNC(C)C)COC(=O)C(C)(C)C(=O)[C@H](C)[C@H]1O[C@@H]1O[C@H](C)C[C@H](N(C)C)[C@H]1O` [Compound 16, (3S,6R,8R,9R,10R)-9-(((2S,3R,4S,6R)-4-(dimethylamino)-3-hydroxy-6-methyltetrahydro-2H-pyran-2-yl)oxy)-3-(3-(isopropylamino)propyl)-8-methoxy-4,6,8,10,12,12-hexamethyl-1-oxa-4-azacyclotridecane-11,13-dione], for which the MIC in assay [1] was 4 to 32 µg/mL (≈ 6.67 to 53.3 µM); in assay [3] it was above 32 µg/mL; in assay [2] it was 4 to 32 µg/mL (≈ 6.67 to 53.3 µM); in assay [4], above 32 µg/mL; in assay [5] it was below 4 µg/mL.

Regarding `CO[C@]1(C)C[C@@H](C)CN(C)[C@@H](CC2CCN(CC(C)(C)C)CC2)COC(=O)C(C)(C)C(=O)[C@H](C)[C@H]1O[C@@H]1O[C@H](C)C[C@H](N(C)C)[C@H]1O` [Compound 66], the MIC in assay [1] was above 32 µg/mL; in assay [3], above 32 µg/mL; in assay [2], 4 to 32 µg/mL (≈ 5.99 to 47.9 µM); in assay [4], above 32 µg/mL; in assay [5] it was 4 to 32 µg/mL (≈ 5.99 to 47.9 µM).

Turning to `CO[C@]1(C)C[C@@H](C)CN[C@@H](Cc2ccccc2)COC(=O)[C@H](C)C(=O)[C@H](C)[C@H]1O[C@@H]1OC(C)CC(N(C)C)C1O` (stereo partly shown) [Compound 208], the MIC was 4 to 32 µg/mL (≈ 7.11 to 56.9 µM) in assay [1], above 32 µg/mL in assay [3], above 32 µg/mL in assay [4] and above 32 µg/mL in assay [5].

Take `CCN(C)CCC[C@H]1COC(=O)C(C)(C)C(=O)[C@H](C)[C@@H](O[C@@H]2O[C@H](C)C[C@H](N(C)C)[C@H]2O)[C@](C)(OC)C[C@@H](C)CN1C` [Compound 20, (3S,6R,8R,9R,10R)-9-(((2S,3R,4S,6R)-4-(dimethylamino)-3-hydroxy-6-methyltetrahydro-2H-pyran-2-yl)oxy)-3-(3-(ethyl(methyl)amino)propyl)-8-methoxy-4,6,8,10,12,12-hexamethyl-1-oxa-4-azacyclotridecane-11,13-dione]: the MIC in assay [1] was 4 to 32 µg/mL (≈ 6.67 to 53.3 µM); in assay [3], above 32 µg/mL; in assay [2], below 4 µg/mL; in assay [4], above 32 µg/mL; in assay [5] it was below 4 µg/mL.

With `CO[C@]1(C)C[C@@H](C)CN(C)[C@@H](CN2CCN(S(C)(=O)=O)CC2)[C@H](C)OC(=O)C(C)(C)C(=O)[C@H](C)[C@H]1O[C@@H]1O[C@H](C)C[C@H](N(C)C)[C@H]1O` [Compound 80, (2S,3S,6R,8R,9R,10R)-9-(((2S,3R,4S,6R)-4-(dimethylamino)-3-hydroxy-6-methyltetrahydro-2H-pyran-2-yl)oxy)-8-methoxy-2,4,6,8,10,12,12-heptamethyl-3-((4-(methylsulfonyl)piperazin-1-yl)methyl)-1-oxa-4-azacyclotridecane-11,13-dione], the MIC in assay [1] is 4 to 32 µg/mL (≈ 5.79 to 46.3 µM); in assay [3], above 32 µg/mL; in assay [2], above 32 µg/mL; in assay [4] it was above 32 µg/mL; in assay [5] it was above 32 µg/mL.

With `CO[C@]1(C)C[C@@H](C)CN[C@H](CNCCCCCCn2ccnn2)COC(=O)[C@H](C)C(=O)[C@H](C)[C@H]1O[C@@H]1O[C@H](C)C[C@H](N(C)C)[C@H]1O` [Compound 220], the MIC in assay [1], in assay [3], in assay [4] and in assay [5] was above 32 µg/mL throughout.

As for `CO[C@]1(C)C[C@@H](C)CN(C)[C@@H](CN2CCN(C(=O)C(F)(F)F)CC2)[C@H](C)OC(=O)C(C)(C)C(=O)[C@H](C)[C@H]1O[C@@H]1O[C@H](C)C[C@H](N(C)C)[C@H]1O` [Compound 109, (2S,3S,6R,8R,9R,10R)-9-(((2S,3R,4S,6R)-4-(dimethylamino)-3-hydroxy-6-methyltetrahydro-2H-pyran-2-yl)oxy)-8-methoxy-2,4,6,8,10,12,12-heptamethyl-3-((4-(2,2,2-trifluoroacetyl)piperazin-1-yl)methyl)-1-oxa-4-azacyclotridecane-11,13-dione], the MIC in assay [1] is 4 to 32 µg/mL (≈ 5.64 to 45.1 µM); in assay [3], above 32 µg/mL; in assay [2], above 32 µg/mL; in assay [4], above 32 µg/mL; in assay [5], 4 to 32 µg/mL (≈ 5.64 to 45.1 µM).

Regarding `CCCN1CCC(C[C@H]2N(C)C[C@H](C)C[C@@](C)(OC)[C@H](O[C@@H]3O[C@H](C)C[C@H](N(C)C)[C@H]3O)[C@@H](C)C(=O)C(C)(C)C(=O)OC2(C)C)CC1` [Compound 46], the MIC in assay [1] is 4 to 32 µg/mL (≈ 5.99 to 47.9 µM); in assay [3], above 32 µg/mL; in assay [2], below 4 µg/mL; in assay [4], above 32 µg/mL; in assay [5], below 4 µg/mL.

Take `C=C[C@@H]1COC(=O)[C@H](C)C(=O)[C@H](C)[C@@H](O[C@@H]2OC(C)CC(N(C)C)C2O)[C@](C)(OC)C[C@@H](C)CN1` (stereo partly shown) [Compound 213]: the MIC in assay [1], in assay [3], in assay [4] and in assay [5] was above 32 µg/mL in each case.

With `CO[C@]1(C)C[C@@H](C)CN[C@H](CC[S+](C)[O-])COC(=O)[C@H](C)C(=O)[C@H](C)[C@H]1O[C@@H]1OC(C)CC(N(C)C)C1O` (stereo partly shown) [Compound 203], the MIC in assay [1], in assay [3], in assay [4] and in assay [5] was above 32 µg/mL throughout.

As for `CO[C@]1(C)C[C@@H](C)CN[C@H](CO)COC(=O)[C@H](C)C(=O)[C@H](C)[C@H]1O[C@@H]1OC(C)CC(N(C)C)C1O` (stereo partly shown) [Compound 204], the MIC in assay [1], in assay [3], in assay [4] and in assay [5] was above 32 µg/mL each time.

For `CO[C@]1(C)C[C@@H](C)CN[C@H](CCSC)COC(=O)[C@H](C)C(=O)[C@H](C)[C@H]1O[C@@H]1OC(C)CC(N(C)C)C1O` (stereo partly shown) [Compound 202], the MIC in assay [1], in assay [3], in assay [4] and in assay [5] was above 32 µg/mL throughout.

`CO[C@]1(C)C[C@@H](C)CN[C@H](Cn2cc(-c3cccc(N)n3)nn2)COC(=O)[C@H](C)C(=O)[C@H](C)[C@H]1O[C@@H]1O[C@H](C)C[C@H](N(C)C)[C@H]1O` [Compound 219, (3R,6R,8R,9R,10R)-3-((4-(6-aminopyridin-2-yl)-1H-1,2,3-triazol-1-yl)methyl)-9-(((2S,3R,4S,6R)-4-(dimethylamino)-3-hydroxy-6-methyltetrahydro-2H-pyran-2-yl)oxy)-8-methoxy-6,8,10,12-tetramethyl-1-oxa-4-azacyclotridecane-11,13-dione]: the MIC in assay [1], in assay [3], in assay [4] and in assay [5] was above 32 µg/mL throughout.

Consider `CC[C@H]1OC(=O)[C@H](C)C(=O)[C@H](C)[C@@H](O[C@@H]2OC(C)CC(N(C)C)C2O)[C@](C)(OC)C[C@@H](C)CN[C@H]1C` (stereo partly shown) [Compound 210], for which the MIC in assay [1], in assay [3], in assay [4] and in assay [5] was above 32 µg/mL in each case.

For the compound `CO[C@]1(C)C[C@@H](C)CN[C@H](CNC2COC2)COC(=O)[C@H](C)C(=O)[C@H](C)[C@H]1O[C@@H]1O[C@H](C)C[C@H](N(C)C)[C@H]1O` [Compound 216], the MIC in assay [1] is above 32 µg/mL; in assay [3], above 32 µg/mL; in assay [4] it was above 32 µg/mL; in assay [5] it was 4 to 32 µg/mL (≈ 7.17 to 57.4 µM).

Turning to `CO[C@]1(C)C[C@@H](C)CNC(CO)(CO)COC(=O)[C@H](C)C(=O)[C@H](C)[C@H]1O[C@@H]1OC(C)CC(N(C)C)C1O` (stereo partly shown) [Compound 212], the MIC in assay [1], in assay [3], in assay [4] and in assay [5] was above 32 µg/mL throughout.

Take `CO[C@]1(C)C[C@@H](C)CN[C@@H](Cc2ccc(O)cc2)COC(=O)[C@H](C)C(=O)[C@H](C)[C@H]1O[C@@H]1OC(C)CC(N(C)C)C1O` (stereo partly shown) [Compound 209]: the MIC in assay [1] is 4 to 32 µg/mL (≈ 6.91 to 55.3 µM); in assay [3] it was above 32 µg/mL; in assay [4], above 32 µg/mL; in assay [5] it was above 32 µg/mL.

As to `CO[C@]1(C)C[C@@H](C)CN[C@H](CNCc2ccc(F)cn2)COC(=O)[C@H](C)C(=O)[C@H](C)[C@H]1O[C@@H]1O[C@H](C)C[C@H](N(C)C)[C@H]1O` [Compound 217], the MIC in assay [1], in assay [3], in assay [4] and in assay [5] was above 32 µg/mL each time.

As to `CC[C@@H]1COC(=O)[C@H](C)C(=O)[C@H](C)[C@@H](OC2OC(C)CC(N(C)C)C2O)[C@](C)(OC)C[C@@H](C)CN1` (stereo partly shown) [Compound 215], the MIC in assay [1], in assay [3], in assay [4] and in assay [5] was above 32 µg/mL in each case.

On to `CC[C@H]1OC(=O)[C@H](C)C(=O)[C@H](C)[C@@H](O[C@@H]2OC(C)CC(N(C)C)C2O)[C@](C)(OC)C[C@@H](C)CN(C)[C@H]1C` (stereo partly shown) [Compound 211], for which the MIC in assay [1], in assay [3], in assay [4] and in assay [5] was above 32 µg/mL each time.

Consider `CO[C@]1(C)C[C@@H](C)CN[C@H](C)COC(=O)[C@H](C)C(=O)[C@H](C)[C@H]1O[C@@H]1OC(C)CC(N(C)C)C1O` (stereo partly shown) [Compound 207], for which the MIC in assay [1], in assay [3], in assay [4] and in assay [5] was above 32 µg/mL each time.

Consider `CO[C@]1(C)C[C@@H](C)CN[C@@H](C)COC(=O)[C@H](C)C(=O)[C@H](C)[C@H]1O[C@@H]1OC(C)CC(N(C)C)C1O` (stereo partly shown) [Compound 206], for which the MIC was above 32 µg/mL in assay [1], above 32 µg/mL in assay [3], above 32 µg/mL in assay [4] and 4 to 32 µg/mL (≈ 8.22 to 65.8 µM) in assay [5].
